Experimental data published in the supplement of paper PMC5908809.

What was measured:
DERL-7 (IL-2 2.5 ng/mL) [1] = assay: percent inhibition of viability; higher = more inhibition; settings: 72 h
KAI3 (IL-2 2.5 ng/mL) [2] = assay: as above; settings: 72 h
KHYG-1 (IL-2 2.5 ng/mL) [3] = assay: as above; settings: 72 h
NK-92 (IL-2 2.5 ng/mL) [4] = assay: as above; settings: 72 h
NK-YS (IL-2 2.5 ng/mL) [5] = assay: as above; settings: 72 h
NKL (IL-2 2.5 ng/mL) [6] = assay: as above; settings: 72 h
SNK-6 (IL-2 2.5 ng/mL) [7] = assay: as above; settings: 72 h
YT (IL-2 2.5 ng/mL) [8] = assay: as above; settings: 72 h
[9] = tested on: normal primary NK cells, pool 1 (3 donors) (IL-2 2.5 ng/mL); assay: as above; settings: 72 h
[10] = tested on: normal primary NK cells, pool 1 (3 donors), resting (IL-2 0 ng/mL); assay: as above; settings: 72 h
DERL-7 (IL-2 2.5 ng/mL) [11] = assay: drug sensitivity score (DSS) (DSS units); higher = more sensitive; extreme values may be limits of the assay; settings: 72 h
KAI3 (IL-2 2.5 ng/mL) [12] = assay: as above; settings: 72 h
KHYG-1 (IL-2 2.5 ng/mL) [13] = assay: as above; settings: 72 h
NK-92 (IL-2 2.5 ng/mL) [14] = assay: as above; settings: 72 h
NK-YS (IL-2 2.5 ng/mL) [15] = assay: as above; settings: 72 h
NKL (IL-2 2.5 ng/mL) [16] = assay: as above; settings: 72 h
SNK-6 (IL-2 2.5 ng/mL) [17] = assay: as above; settings: 72 h
YT (IL-2 2.5 ng/mL) [18] = assay: as above; settings: 72 h
[19] = tested on: normal primary NK cells, pool 1 (3 donors) (IL-2 2.5 ng/mL); assay: as above; settings: 72 h
[20] = tested on: normal primary NK cells, pool 1 (3 donors), resting (IL-2 0 ng/mL); assay: as above; settings: 72 h
[21] = tested on: normal NK cells expanded with K562-aAPC; assay: percent inhibition of viability; higher = more inhibition; settings: 72 h, IL-2 2.5 ng/mL
Experimental: (§1)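 Drug sensitivity and resistance testing on K562-aAPC-expanded normal NK cells: 5 concentrations (10-fold steps over a 10,000-fold range), 72 h at 37 °C, viability by CellTiter-Glo normalised to DMSO and benzethonium chloride controls; DSS from the fitted curve.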

IMC-1 (IL-2 20 ng/mL) [22] = assay: as above; settings: 72 h
[23] = tested on: normal primary NK cells, pool 2 (3 donors) (IL-2 2.5 ng/mL); assay: as above; settings: 72 h
[24] = tested on: normal primary NK cells, pool 3 (3 donors) (IL-2 2.5 ng/mL); assay: as above; settings: 72 h
[25] = tested on: normal NK cells expanded with K562-aAPC; assay: drug sensitivity score (DSS) (DSS units); higher = more sensitive; extreme values may be limits of the assay; settings: 72 h; IL-2 2.5 ng/mL
Experimental: as §1

IMC-1 (IL-2 20 ng/mL) [26] = assay: as above; settings: 72 h
[27] = tested on: normal primary NK cells, pool 2 (3 donors) (IL-2 2.5 ng/mL); assay: as above; settings: 72 h
[28] = tested on: normal primary NK cells, pool 3 (3 donors) (IL-2 2.5 ng/mL); assay: as above; settings: 72 h

Cc1cnc(Nc2ccc(OCCN3CCCC3)cc2)nc1Nc1cccc(S(=O)(=O)NC(C)(C)C)c1 (max concentration tested 10000 nM)
percent inhibition of viability [%]
Settings | DERL-7 (IL-2 2.5 ng/mL) [1] | KAI3 (IL-2 2.5 ng/mL) [2] | KHYG-1 (IL-2 2.5 ng/mL) [3] | NK-92 (IL-2 2.5 ng/mL) [4] | NK-YS (IL-2 2.5 ng/mL) [5] | NKL (IL-2 2.5 ng/mL) [6] | SNK-6 (IL-2 2.5 ng/mL) [7] | YT (IL-2 2.5 ng/mL) [8] | [9] | [10]
1 nM | 2.35 | -2.12 | -4.97 | -22 | -4.69 | -6.46 | -5 | -4.96 | 2.15 | -0.59
10 nM | 0.3 | 8.65 | -1.52 | -8.95 | 1.18 | 3.43 | -10.1 | -1.05 | 0.15 | 16
100 nM | 26.8 | 26.5 | 7.04 | -15.3 | 10.9 | 50.6 | -13.7 | 6.19 | 24.1 | 14.1
1000 nM | 84.8 | 90.3 | 99.4 | 33 | 68.9 | 83.5 | 58.4 | 51.3 | 83 | 51.8
10000 nM | 101 | 108 | 108 | 106 | 108 | 109 | 101 | 107 | 99.8 | 96.5

Settings | drug sensitivity score
DERL-7 (IL-2 2.5 ng/mL) [11] | 18.8
KAI3 (IL-2 2.5 ng/mL) [12] | 19.8
KHYG-1 (IL-2 2.5 ng/mL) [13] | 19
NK-92 (IL-2 2.5 ng/mL) [14] | 10.2
NK-YS (IL-2 2.5 ng/mL) [15] | 14.6
NKL (IL-2 2.5 ng/mL) [16] | 22.6
SNK-6 (IL-2 2.5 ng/mL) [17] | 12.4
YT (IL-2 2.5 ng/mL) [18] | 11.8
[19] | 18.2
[20] | 12.3

N#Cc1ccc(COC[C@H]2O[C@@H](n3c(NCc4ccc(Cl)c(Cl)c4)nc4c(N)ncnc43)[C@H](O)[C@@H]2O)cc1 (max concentration tested 10000 nM)
percent inhibition of viability [%]
Settings | 1 nM | 10 nM | 100 nM | 1000 nM | 10000 nM
DERL-7 (IL-2 2.5 ng/mL) [1] | 4.78 | 2.63 | 2.42 | 7.67 | 32.1
IMC-1 (IL-2 20 ng/mL) [22] | -1.92 | -0.39 | -4.01 | -16.8 | 97.2
KAI3 (IL-2 2.5 ng/mL) [2] | 1.01 | 1.02 | -1.36 | 17.5 | 34.8
KHYG-1 (IL-2 2.5 ng/mL) [3] | -2.11 | -1.26 | 0.87 | 11.4 | 62.4
NK-92 (IL-2 2.5 ng/mL) [4] | -0.8 | 4.51 | -4.4 | 7.42 | 45.2
NK-YS (IL-2 2.5 ng/mL) [5] | -1.65 | 1.3 | -0.1 | 21.7 | 64.4
NKL (IL-2 2.5 ng/mL) [6] | 4.1 | 5.28 | -8.68 | 9.7 | 9.11
SNK-6 (IL-2 2.5 ng/mL) [7] | 5.72 | 12.3 | -10.3 | 21.8 | 52.5
YT (IL-2 2.5 ng/mL) [8] | 2.07 | 0.4 | -2.55 | 12.2 | 59
[9] | -6.38 | -11.1 | 5.83 | 5.84 | 18.5
[10] | -3.74 | -9.12 | 7.84 | 15.3 | 41
[21] | -3.56 | -7.9 | -9.32 | 1.88 | 14.8
[23] | -10.6 | -2.26 | -3.97 | -0.12 | 12.3
[24] | -13.6 | -13.5 | -14 | -9.19 | -0.46

Settings | drug sensitivity score
DERL-7 (IL-2 2.5 ng/mL) [11] | 2.63
IMC-1 (IL-2 20 ng/mL) [26] | 4.46
KAI3 (IL-2 2.5 ng/mL) [12] | 3.83
KHYG-1 (IL-2 2.5 ng/mL) [13] | 5.29
NK-92 (IL-2 2.5 ng/mL) [14] | 3.57
NK-YS (IL-2 2.5 ng/mL) [15] | 6.65
NKL (IL-2 2.5 ng/mL) [16] | 0
SNK-6 (IL-2 2.5 ng/mL) [17] | 5.74
YT (IL-2 2.5 ng/mL) [18] | 5.18
[19] | 0.69
[20] | 3.54
[25] | 0.38
[27] | 0.06
[28] | 0
